Each structure is given as a SMILES string. Values joined by “and” are separate entries in the source; they are usually repeats but may differ in a detail not shown here. Equal entries are not always repeated. Where two headings read alike, the source gives them in different places.

On the set-up of assay [1]: method as in PMID 9299023. The conditions noted are these: smallest reported value for the ATP:Mg^2+ complex; read-out: dissociation constant; cited from earlier work.
The conditions of assay [2]: EDTA titrated with Mg^2+, pH 7.5, 293 K.
Assay [3] addresses T1, hDUT (Homo sapiens, UniProt P33316).
T1 sequence (P33316 1-164 isoform P33316-2): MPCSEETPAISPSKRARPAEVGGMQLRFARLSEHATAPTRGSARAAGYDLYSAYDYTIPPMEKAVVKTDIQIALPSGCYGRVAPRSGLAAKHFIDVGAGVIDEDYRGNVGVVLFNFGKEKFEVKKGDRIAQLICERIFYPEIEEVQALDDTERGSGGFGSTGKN
Kind of assay: Isothermal titration calorimetry (ITC). On the set-up: His tag (N); made in house. In kind it is binding. (In general: In ITC the heat of successive injections is recorded.)

Assay [4] addresses T2, EcMutT (Escherichia coli, UniProt P08337). Put plainly: biochemical.
For assay [5], the target named is T3, Taq polymerase (Thermus aquaticus, UniProt P19821). Kind of assay: biochemical.
T3 sequence (P19821 whole entry): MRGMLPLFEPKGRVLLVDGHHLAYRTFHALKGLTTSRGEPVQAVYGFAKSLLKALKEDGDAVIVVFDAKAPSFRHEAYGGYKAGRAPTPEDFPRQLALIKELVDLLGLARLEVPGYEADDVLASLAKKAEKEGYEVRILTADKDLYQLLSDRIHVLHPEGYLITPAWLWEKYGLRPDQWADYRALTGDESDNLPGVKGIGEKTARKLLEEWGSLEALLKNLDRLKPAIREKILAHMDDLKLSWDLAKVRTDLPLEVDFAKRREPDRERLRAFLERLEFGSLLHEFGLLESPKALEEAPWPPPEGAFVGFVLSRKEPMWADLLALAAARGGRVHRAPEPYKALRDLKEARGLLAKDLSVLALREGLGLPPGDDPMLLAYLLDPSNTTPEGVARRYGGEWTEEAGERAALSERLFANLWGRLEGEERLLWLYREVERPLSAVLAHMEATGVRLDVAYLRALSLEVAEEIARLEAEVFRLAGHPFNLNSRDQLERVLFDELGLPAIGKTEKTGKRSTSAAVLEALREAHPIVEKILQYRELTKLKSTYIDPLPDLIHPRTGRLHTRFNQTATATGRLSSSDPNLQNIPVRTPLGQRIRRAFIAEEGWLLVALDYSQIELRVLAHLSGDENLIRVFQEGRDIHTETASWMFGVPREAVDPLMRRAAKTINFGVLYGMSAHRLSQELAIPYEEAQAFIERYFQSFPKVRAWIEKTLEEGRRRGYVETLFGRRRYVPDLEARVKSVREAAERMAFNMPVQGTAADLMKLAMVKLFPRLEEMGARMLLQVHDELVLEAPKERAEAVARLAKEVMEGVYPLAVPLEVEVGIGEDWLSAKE
Assay [6] addresses T1, hDUT. Put plainly: Thermofluor stability assay. The format is binding. To be noted: for Tm (5 mM Mg^2+): 5 mM MgCl2. Details: His tag (N); made in house. On the technique in general: DSF heats the sample and reads unfolding from a dye or from intrinsic fluorescence.
For assay [7], the target named is T2, EcMutT. To be noted: no Mg^2+, pH 7.5, 293 K.
In assay [8] the target is T4, mtDUT (Mycobacterium tuberculosis, UniProt P9WNS5). The procedure:
(§1) Continuous pH indicator-based assays were performed to measure enzyme activity at 20 °C as described in [26]. Briefly, 1 µM protein was used in a buffer pH 7.5 containing 1 mM HEPES, 100 mM KCl and 40 µM phenol red. A Specord 200 (Analytic, Jena, Germany) spectrophotometer and 10-mm-path length cuvettes were used, and absorbance was recorded at 559 nm. Initial velocity was determined from the first 10% of the progress curve. […] Data fitting was accomplished using OriginPro 7.5 (OriginLab Corp, Northampton, MA, USA).

Assay [9] has as its target T1, hDUT. To be noted: no Mg^2+; for kcat: dUTP hydrolysis, 20 °C, pH 7.5. The procedure: as §1
The target in assay [10] is T4, mtDUT. Put plainly: biochemical. The format is binding. On the set-up: His tag (N); made in house.
Assay [11] addresses T3, Taq polymerase. The conditions noted are these: no Mg^2+, pH 7.5, 293 K.
Assay [12] addresses T4, mtDUT. The conditions noted are these: cited from earlier work.
Assay [13] deals with T1, hDUT. On the set-up: His tag (N); made in house; method as in PMID 18519027, PMID 17848562. To be noted: dUTP hydrolysis; 5 mM Mg^2+, no EDTA; reported previously ref 20, 51; cited from earlier work.
In assay [14] the target is T1, hDUT. Details: His tag (N); made in house; method as in PMID 20601405, PMID 17880943, PMID 17848562. To be noted: same titration in the presence of Mg^2+; cited from earlier work.
Where [15] appears, read: apparent, no Mg^2+, pH 7.5, 293 K, average and SD.
The mark [16] stands for this setting: no Mg^2+, pH 7.5, 293 K, average and SD.
The mark [17] stands for this setting: hDUT complexed with ligand (100 µM dUPNPP or 1 mM dUMP).
The mark [18] stands for this setting: fit of the titration shown in Figure S1A, no Mg^2+.
Setting [19] is: fit of the titration shown in Figure S1B, no Mg^2+.

T2 sequence (P08337 whole entry): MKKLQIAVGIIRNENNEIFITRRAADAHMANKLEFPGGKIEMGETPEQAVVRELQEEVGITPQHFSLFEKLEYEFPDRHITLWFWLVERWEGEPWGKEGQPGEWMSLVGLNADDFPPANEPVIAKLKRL
T4 sequence (P9WNS5 whole entry): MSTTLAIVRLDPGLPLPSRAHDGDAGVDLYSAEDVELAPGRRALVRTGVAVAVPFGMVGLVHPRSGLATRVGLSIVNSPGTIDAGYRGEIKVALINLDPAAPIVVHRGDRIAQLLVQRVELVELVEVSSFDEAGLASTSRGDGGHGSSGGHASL

`Nc1ncnc2c1ncn2[C@@H]1O[C@H](COP(=O)(O)OP(=O)(O)OP(=O)(O)O)[C@@H](O)[C@H]1O` [ATP]: the Kd in assay [1] was 46.3 µM.
Consider `O=C(O)CN(CCN(CC(=O)O)CC(=O)O)CC(=O)O` [EDTA, ethylene diamine tetraacetic acid], for which the ΔG in [2] was -33.5 ± 3.8 kJ/mol; at hDUT [3] (setting [16]), -37.7 ± 0 kJ/mol; at EcMutT [7] it was -35.1 ± 0.42 kJ/mol; at mtDUT [10] (setting [16]), -40.2 ± 0.84 kJ/mol; on Taq polymerase [11], -41 ± 0 kJ/mol. The ΔH in assay [2] is 18.4 ± 1.3 kJ/mol; on hDUT [3] (setting [16]), -46.9 ± 1.7 kJ/mol; at EcMutT [7], -40.6 ± 0.084 kJ/mol; on mtDUT [10] (setting [16]), -17.6 ± 4.18 kJ/mol; at Taq polymerase [11], -26.4 ± 2.9 kJ/mol. In addition, the “−TΔS” value in assay [2] was -52.3 ± 2.5 kJ/mol; on hDUT [3] (setting [16]) it was 9.2 ± 1.7 kJ/mol; at EcMutT [7] it was 5.44 ± 0.42 kJ/mol; at mtDUT [10] (setting [16]) it was -22.2 ± 5.02 kJ/mol; at Taq polymerase [11] it was -14.6 ± 2.9 kJ/mol. For the same molecule, the Kd in [2] (apparent) turned out to be 2.53 ± 0.18 µM; at hDUT [3] (absence of Mg^2+), 0.199 µM; at hDUT [3] (setting [15]), 0.2 ± 0.009 µM; on EcMutT [4], 0.55 ± 0.066 µM; at Taq polymerase [5] it was 0.047 µM; at mtDUT [10], 0.078 µM. In addition, the “Tm (100 µM EDTA)” value on hDUT [6] (apo hDUT) was 58.5 ± 0.1 °C. The results for the KM increase on mtDUT [8] and at hDUT [9] (30 µM EDTA) were 3.7 fold and 2.7 fold, respectively. Further, on hDUT [9] (100 µM EDTA), the “kcat decreased to” value is listed as 6%. For the same molecule, the kcat – broadly, the number of substrate molecules converted per active site and unit of time at saturation – at hDUT [9] (30 µM EDTA) worked out at 3.30 ± 0.26 s⁻¹; on hDUT [9] (100 µM EDTA), 0.24 ± 0.03 s⁻¹.
As for `[Mg+2]` [Mg^2+], the “Tm (5 mM Mg^2+)” value at hDUT [6] (apo hDUT) turned out to be 59.5 ± 0.3 °C. On hDUT [6] (apo hDUT, 5 mM Mg^2+ vs no Mg^2+), the “increase of melting temperature in the presence of Mg^2+” value was determined as 0.9 °C. The catalytic constant (kcat) on mtDUT [12] is 2.39 ± 0.16 s⁻¹; on hDUT [13] it was 5.27 ± 0.24 s⁻¹. Besides, the Km – broadly, the substrate concentration at which the rate is half of its maximum – at mtDUT [12] (dUTP hydrolysis, 5 mM Mg^2+, no EDTA, reported previously ref 20, 51) is 1.72 ± 0.51 µM; at hDUT [13], 2.26 ± 0.33 µM.
Take `O=c1ccn([C@H]2C[C@H](O)[C@@H](COP(=O)(O)O)O2)c(=O)[nH]1` [dUMP]: at hDUT [6] (setting [17]), the “Tm (100 µM EDTA)” value was determined as 58.7 ± 0.1 °C; the “Tm (5 mM Mg^2+)” value is 62.3 ± 0.1 °C; the “Tm (No Mg^2+, no EDTA)” value was determined as 59.7 ± 0.1 °C.
With `O=c1ccn([C@H]2C[C@H](O)[C@@H](COP(=O)(O)NP(=O)(O)OP(=O)(O)O)O2)c(=O)[nH]1` [dUPNPP], at hDUT [3] (setting [15]), the Kd was 44 µM and 43.9 µM. Also, at hDUT [3] (setting [18]), the Kd came to 54 µM, the “n (stoichiometry)” value came to 0.41, the ΔG result was “–5.7 kcal/mol” and the ΔH entry is recorded as “–19.9 kcal/mol”. Also, on hDUT [3] (setting [18]), the “–TΔS” value is 59 kJ/mol. In addition, on hDUT [3] (setting [16]), the ΔG was -24.7 ± 0.84 kJ/mol, the ΔH was -72.8 ± 15.1 kJ/mol and the “−TΔS” value is 48.1 ± 15.5 kJ/mol. For the same molecule, the Kd on hDUT [14] is 2 to 7 µM. For the same molecule, at hDUT [6] (setting [17]), the “Tm (100 µM EDTA)” value came out at 58.3 ± 0.1 °C; the “Tm (5 mM Mg^2+)” value is 63.9 ± 0.3 °C; the “Tm (No Mg^2+, no EDTA)” value came to 59.1 ± 0.2 °C. In addition, the “n (stoichiometry)” value on mtDUT [10] is reported as 1. Further, on mtDUT [10] (setting [19]), the ΔG entry is given as “–6.2 kcal/mol”, the ΔH result is “–4.4 kcal/mol” and the “–TΔS” value was “–1.8 kcal/mol”. Also, at mtDUT [10] (setting [16]), the ΔH was -18.8 ± 0.84 kJ/mol and the “−TΔS” value was -8.79 ± 1.7 kJ/mol.

The record behind these values is PMC6843921 (Biomolecules, 2019).
